Test system: episomal HPV-16 DNA in W12-20850 cells
Assay: W-12 cellular assay: episomal HPV-16 DNA quantified by hybrid capture in W12-20850 cells
Type: cell-based, HPV16
Settings: four days incubation, inhibition of episomal HPV-16 DNA relative to untreated control
Procedure: Compounds of the current invention are believed useful in the treatment and/or prophylaxis of conditions and diseases associated with HPV infection. Activity mediated through HPV was determined using the following W-12 cellular assay. The […] cell line used contains HPV16 DNA and was derived from a low-grade cervical dysplasia tissue by Margaret Stanley and subsequently clonally selected by Paul Lambert (University of Wisconsin). One of these clones, […]-20850, contains 1000 copies of episomal HPV16 DNA and was used in the cell-based assay. […]-20850 cells were routinely cultured with a gamma-irradiated (6000 rads) feeder layer of 3T3 cells. Assays, however, were run in the absence of a 3T3 feeder layer. […]-20850 and 3T3 cells were routinely split when they were sub-confluent. […]-20850 were grown in […] Medium which is constituted of 25% DMEM (Gibco BRL, Cat # 12430-047), 75% F12 Media (Gibco BRL, Cat # 11765-021) and 2.5% FBS. The additives include […] Adenine (Sigma, Cat # A-9795), […] Hydrocortisone (Calbiochem, Cat # 386698), […] Bovine Insulin (Sigma, Cat # 1-1882), 8.4 ng/ml cholera toxin (Fluka, Cat # 26694) and 10 ng/ml EGF (Invitrogen, Cat # 13247-051). 3T3 cells were grown in DMEM containing 10% FBS. Cell lines were incubated at 37° C., in the presence of 5% CO2. For the assay, […]-20850 cells were seeded into a 96 well plate-containing compound. Plates were incubated at 37° C. in the presence of 5% CO2, for four days. On the fourth day, cells were lysed and the amount of episomal HPV-16 DNA was quantified using a non-radioactive hybrid capture technique with HPV-16 specific capture and detection probes. The percent inhibition relative to untreated control cells was then determined. The hybrid capture assay is run in a 96 well plate format. Hybridization plates (Nunc Maxisorb Cat # 450320) were coated with a mixture of capture probe and ReactiBind solution for at least 4 hours and then washed with 0.2×SSC, 0.05% Tween-20 (SSCT) prior to blocking with 150 μl/well of 0.2 N NaOH, 1% Igepal, 10 mg/ml hsDNA for 6-8 hours. The hybridization was carried out by mixing 27 μl of lysed cells with 45 μl of denatured detection probe in 6M guanidine isothiocyanate. To prevent evaporation, 50 μl of mineral oil was added to each well. The plate was then heated to 90° C. for 6.5 minutes and the hybridization continued at 42° C. overnight. Assay plates were washed 6 times with SSC/T. Anti-digoxigenin HRP-conjugated Ab (Boehringer Mannheim 1207733, 1:5000) was incubated in the wells for 30 min at room temperature and washed with PBS/0.05% Tween-20. SuperSignal LBA substrate (Pierce Cat # 37070) was added, and chemiluminescence was measured using Wallac 1420 Victor plate reader.

SMILES | IC50 (Human papillomavirus 16, 96 h) | IC50
Cc1ccc(C2c3[nH]c4ccc(Cl)cc4c3CCN2C(=O)CCc2ccccc2)cc1 (stereo not drawn) [Example 3, 6-Chloro-1-(4-methylphenyl)-2-(3-phenylpropanoyl)-2,3,4,9-tetrahydro-1H-β-carboline] | 60 nM | 
Cc1ccc(C2c3[nH]c4ccccc4c3CCN2S(C)(=O)=O)cc1 (stereo not drawn) [Example 16, 1-(4-Methylphenyl)-2-(methylsulfonyl)-2,3,4,9-tetrahydro-1H-β-carboline] | 24000 nM | 
Cc1ccc(C2c3[nH]c4ccc(Cl)cc4c3CCN2C(=O)OCc2ccccc2)cc1 (stereo not drawn) [Example 4, Phenylmethyl 6-chloro-1-(4-methylphenyl)-1,3,4,9-tetrahydro-2H-β-carboline-2-carboxylate] | 22 nM | 
c1cncc(-c2ccnc(N3CCc4c([nH]c5ccccc45)C3c3ccc4c(c3)CCO4)n2)c1 (stereo not drawn) [Example 37, 1-(2,3-dihydro-1-benzofuran-5-yl)-2-[4-(3-pyridinyl)-2-pyrimidinyl]-2,3,4,9-tetrahydro-1H-β-carboline] | 4000 nM | 
Cc1ccc(C2c3[nH]c4ccc(Br)cc4c3CCN2C(=O)CCc2ccccc2)cc1 (stereo not drawn) [Example 11, 6-Bromo-1-(4-methylphenyl)-2-(3-phenylpropanoyl)-2,3,4,9-tetrahydro-1H-β-carboline] | 20 nM | 
COC(=O)N1CCc2c([nH]c3ccc(F)cc23)C1c1ccc(C)cc1 (stereo not drawn) [Example 6, Methyl 6-fluoro-1-(4-methylphenyl)-1,3,4,9-tetrahydro-2H-β-carboline-2-carboxylate] | 365 nM | 
COc1ccc2c3c([nH]c2c1)C(c1ccc(C)cc1)N(C(=O)CCc1ccccc1)CC3 (stereo not drawn) [Example 27, 7-(Methyloxy)-1-(4-methylphenyl)-2-(3-phenylpropanoyl)-2,3,4,9-tetrahydro-1H-β-carboline] | 6000 nM | 
Cc1ccc(C2c3[nH]c4ccc(F)cc4c3CCN2C(=O)OCc2ccccc2)cc1 (stereo not drawn) [Example 8, Phenylmethyl 6-fluoro-1-(4-methylphenyl)-1,3,4,9-tetrahydro-2H-β-carboline-2-carboxylate] | 446 nM | 
COc1ccc2[nH]c3c(c2c1)CCN(C(=O)CCc1ccccc1)C3c1ccc(C)cc1 (stereo not drawn) [Example 23, 6-(Methyloxy)-1-(4-methylphenyl)-2-(3-phenylpropanoyl)-2,3,4,9-tetrahydro-1H-β-carboline] | 600 nM | 
O=C(/C=C/c1ccccc1)N1CCc2c([nH]c3ccccc23)[C@H]1c1ccc2c(c1)CCO2 [Example 30, (1R)-1-(2,3-dihydro-1-benzofuran-5-yl)-2-[(2E)-3-phenyl-2-propenoyl]-2,3,4,9-tetrahydro-1H-β-carboline] | > 20000 nM | 
c1cnc(N2CCc3c([nH]c4ccccc34)C2c2ccc3c(c2)OCO3)nc1 (stereo not drawn) [Example 33, 1-(1,3-benzodioxol-5-yl)-2-(2-pyrimidinyl)-2,3,4,9-tetrahydro-1H-β-carboline] | 5000 nM | 
c1ccc2c3c([nH]c2c1)C(c1ccc2c(c1)CCO2)N(c1nccc(-n2ccnc2)n1)CC3 (stereo not drawn) [Example 38, 1-(2,3-dihydro-1-benzofuran-5-yl)-2-[4-(1H-imidazol-1-yl)-2-pyrimidinyl]-2,3,4,9-tetrahydro-1H-β-carboline] | 3000 nM | 
Cc1ccc(C2c3[nH]c4ccccc4c3CCN2S(=O)(=O)c2ccc(N)cc2)cc1 (stereo not shown) [Example 17, (4-{[1-(4-Methylphenyl)-1,3,4,9-tetrahydro-2H-b-carbolin-2-yl]sulfonyl}phenyl)amine] | 10000 nM | 
COC(=O)N1CCc2c([nH]c3ccc(Br)cc23)C1c1ccc(C)cc1 (stereo not drawn) [Example 10, Methyl 6-bromo-1-(4-methylphenyl)-1,3,4,9-tetrahydro-2H-β-carboline-2-carboxylate] | 11 nM | 
c1ccc(-c2ccnc(N3CCc4c([nH]c5ccccc45)C3c3ccccc3)n2)cc1 (stereo not drawn) [Example 35, 1-phenyl-2-(4-phenyl-2-pyrimidinyl)-2,3,4,9-tetrahydro-1H-β-carboline] | 2000 nM | 
c1ccc(-c2ccnc(N3CCc4c([nH]c5ccccc45)C3c3ccc4c(c3)CCO4)n2)cc1 (stereo not drawn) [Example 36, 1-(2,3-dihydro-1-benzofuran-5-yl)-2-(4-phenyl-2-pyrimidinyl)-2,3,4,9-tetrahydro-1H-β-carboline] | 3000 nM | 
COC(=O)N1CCc2c([nH]c3ccc(Cl)cc23)C1c1ccc(C)cc1 (stereo not drawn) [Example 2, Methyl 6-chloro-1-(4-methylphenyl)-1,3,4,9-tetrahydro-2H-β-carboline-2-carboxylate] | 68 nM | 
O=C(/C=C/c1ccccc1)N1CCc2c([nH]c3ccccc23)C1c1ccc2c(c1)CCO2 (stereo not drawn) [Example 29, (1R/1S)-1-(2,3-dihydro-1-benzofuran-5-yl)-2-[(2E)-3-phenyl-2-propenoyl]-2,3,4,9-tetrahydro-1H-β-carboline] |  | 3000 nM
COc1ccc(-c2ccnc(N3CCc4c([nH]c5ccccc45)C3c3ccc4c(c3)OCO4)n2)cc1 (stereo not drawn) [Example 32, 1-(1,3-benzodioxol-5-yl)-2-{4-[4-(methyloxy)phenyl]-2-pyrimidinyl}-2,3,4,9-tetrahydro-1H-β-carboline] | 2000 nM | 
O=C(/C=C/c1ccccc1)N1CCc2c([nH]c3ccccc23)[C@@H]1c1ccc2c(c1)CCO2 [Example 31, (1S)-1-(2,3-dihydro-1-benzofuran-5-yl)-2-[(2E)-3-Phenyl-2-propenoyl]-2,3,4,9-tetrahydro-1H-β-carboline] | 2000 nM | 

Continued, values first:

IC50 (Human papillomavirus 16, 96 h) | IC50 | SMILES
18000 nM |  | Cc1ccc(C2c3[nH]c4ccccc4c3CCN2C(=O)CCc2cccnc2)cc1 (stereo not drawn) [Example 21, 1-(4-Methylphenyl)-2-[3-(3-pyridinyl)propanoyl]-2,3,4,9-tetrahydro-1H-β-carboline]
1000 nM |  | Cc1ccc(C2c3[nH]c4ccccc4c3CCN2C(=O)CCc2ccccc2)cc1 (stereo not drawn) [Example 19, 1-(4-Methylphenyl)-2-(3-phenylpropanoyl)-2,3,4,9-tetrahydro-1H-β-carboline]
26000 nM |  | Cc1ccc(C2c3[nH]c4ccccc4c3CCN2C(=O)C#Cc2ccccc2)cc1 (stereo not shown) [Example 20, 1-(4-Methylphenyl)-2-(3-phenyl-2-propynoyl)-2,3,4,9-tetrahydro-1H-b-carboline]
2000 nM |  | Cc1ccc(C2c3[nH]c4cc(F)ccc4c3CCN2C(=O)CCc2ccccc2)cc1 (stereo not drawn) [Example 26, 7-Fluoro-1-(4-methylphenyl)-2-(3-phenylpropanoyl)-2,3,4,9-tetrahydro-1H-β-carboline]
400 nM |  | Cc1ccc(C2c3[nH]c4ccc(C)cc4c3CCN2C(=O)CCc2ccccc2)cc1 (stereo not drawn) [Example 25, 6-Methyl-1-(4-methylphenyl)-2-(3-phenylpropanoyl)-2,3,4,9-tetrahydro-1H-β-carboline]
8000 nM |  | Cc1ccc([C@@H]2c3[nH]c4ccc(Cl)cc4c3CCN2C(=O)CCc2ccccc2)cc1 [Example 13, (1R)-6-Chloro-1-(4-methylphenyl)-2-(3-phenylpropanoyl)-2,3,4,9-tetrahydro-1H-β-carboline]
14 nM |  | Cc1ccc(C2c3[nH]c4ccc(Br)cc4c3CCN2C(=O)OCc2ccccc2)cc1 (stereo not drawn) [Example 12, Phenylmethyl 6-bromo-1-(4-methylphenyl)-1,3,4,9-tetrahydro-2H-β-carboline-2-carboxylate]
15 nM |  | Cc1ccc([C@H]2c3[nH]c4ccc(Cl)cc4c3CCN2C(=O)CCc2ccccc2)cc1 [Example 14, (1S)-6-Chloro-1-(4-methylphenyl)-2-(3-phenylpropanoyl)-2,3,4,9-tetrahydro-1H-β-carboline]
7000 nM |  | Cc1ccc(C2c3[nH]c4ccccc4c3CCN2S(=O)(=O)Cc2ccccc2)cc1 (stereo not drawn) [Example 15, 1-(4-Methylphenyl)-2-[(phenylmethyl)sulfonyl]-2,3,4,9-tetrahydro-1H-β-carboline]
5000 nM |  | CC(=O)N1CCc2c([nH]c3ccccc23)C1c1ccc(C)cc1 (stereo not drawn) [Example 18, 2-Acetyl-1-(4-methylphenyl)-2,3,4,9-tetrahydro-1H-β-carboline]
216 nM |  | Cc1ccc(C2c3[nH]c4ccc(F)cc4c3CCN2C(=O)CCc2ccccc2)cc1 (stereo not drawn) [Example 7, 6-Fluoro-1-(4-methylphenyl)-2-(3-phenylpropanoyl)-2,3,4,9-tetrahydro-1H-β-carboline]
